Experiment [1] has as its target T1, α-synuclein (αSyn) (Homo sapiens, UniProt P37840). Nature of the experiment: split Gaussia luciferase oligomerization assay; also FRET oligomerization, HT-CM-SPR hit (tethered). Format: biochemical. Further details: gene SNCA; αSyn-GLuc1 and αSyn-GLuc2 (split Gaussia luciferase fragment fused to the C-terminus of αSyn); monomeric αSyn in SPR.
The target in experiment [2] is T1, α-synuclein (αSyn). Nature of the experiment: split Gaussia luciferase oligomerization assay; also FRET oligomerization, ThT fibrillization, HT-CM-SPR hit (tethered). It counts as biochemical. Further details: gene SNCA; αSyn-GLuc1 and αSyn-GLuc2 (split Gaussia luciferase fragment fused to the C-terminus of αSyn); monomeric αSyn in SPR and fibrillization.

SMILES strings stand for the structures.

3 compounds from paper PMC6861283, “Novel Small Molecules Targeting the Intrinsically Disordered Structural Ensemble of α-Synuclein Protect Against Diverse α-Synuclein Mediated Dysfunctions” (Scientific Reports, 2019) can be followed below.

As to `Cc1c(-c2csc(NC(C(N)=O)C3CCNCC3)n2)sc2ccccc12` (stereo not drawn) [compound 573437, 573437], inhibition against α-synuclein (αSyn) [1] was half-maximal at 104 µM (IC50). Regarding `CNC(=O)c1cc(O)ccc1N` [compound 576755, 576755], on α-synuclein (αSyn) [2], half-maximal inhibition (IC50) required 10.5 µM.

Take `CNC(=O)CN(C(=O)Cc1noc2ccccc12)C(C)c1ccc(Cl)cc1` (stereo not drawn) [compound 582032, 582032]: the IC50 (commonly the midpoint of a concentration-inhibition curve) against α-synuclein (αSyn) [2] was determined as 290 µM.
